Data on eight molecules can be found in ChEMBL document CHEMBL5465560, “Selectivity Literature for EUbOPEN Chemogenomic Library” (2024).

SMILES strings stand for the structures.

Test [1] concerns the target Mitogen-activated protein kinase 11 (Homo sapiens) (UniProt Q15759). The test is described as follows: Selectivity interaction (Ambit KINOMEscan and KiNATiv profiling in Jurkat cells) EUB0000090b MAPK11. Format: cell-based. Conditions: at 1 µM.
For test [2], the target named is Ephrin type-A receptor 2 (Homo sapiens) (UniProt P29317). The test is described as follows: Selectivity interaction (KinomeScan (DiscoverX)) EUB0001079a EPHA2. Conditions: at 1 µM.
Chain of Ephrin type-A receptor 2 (Homo sapiens) (P29317 whole entry): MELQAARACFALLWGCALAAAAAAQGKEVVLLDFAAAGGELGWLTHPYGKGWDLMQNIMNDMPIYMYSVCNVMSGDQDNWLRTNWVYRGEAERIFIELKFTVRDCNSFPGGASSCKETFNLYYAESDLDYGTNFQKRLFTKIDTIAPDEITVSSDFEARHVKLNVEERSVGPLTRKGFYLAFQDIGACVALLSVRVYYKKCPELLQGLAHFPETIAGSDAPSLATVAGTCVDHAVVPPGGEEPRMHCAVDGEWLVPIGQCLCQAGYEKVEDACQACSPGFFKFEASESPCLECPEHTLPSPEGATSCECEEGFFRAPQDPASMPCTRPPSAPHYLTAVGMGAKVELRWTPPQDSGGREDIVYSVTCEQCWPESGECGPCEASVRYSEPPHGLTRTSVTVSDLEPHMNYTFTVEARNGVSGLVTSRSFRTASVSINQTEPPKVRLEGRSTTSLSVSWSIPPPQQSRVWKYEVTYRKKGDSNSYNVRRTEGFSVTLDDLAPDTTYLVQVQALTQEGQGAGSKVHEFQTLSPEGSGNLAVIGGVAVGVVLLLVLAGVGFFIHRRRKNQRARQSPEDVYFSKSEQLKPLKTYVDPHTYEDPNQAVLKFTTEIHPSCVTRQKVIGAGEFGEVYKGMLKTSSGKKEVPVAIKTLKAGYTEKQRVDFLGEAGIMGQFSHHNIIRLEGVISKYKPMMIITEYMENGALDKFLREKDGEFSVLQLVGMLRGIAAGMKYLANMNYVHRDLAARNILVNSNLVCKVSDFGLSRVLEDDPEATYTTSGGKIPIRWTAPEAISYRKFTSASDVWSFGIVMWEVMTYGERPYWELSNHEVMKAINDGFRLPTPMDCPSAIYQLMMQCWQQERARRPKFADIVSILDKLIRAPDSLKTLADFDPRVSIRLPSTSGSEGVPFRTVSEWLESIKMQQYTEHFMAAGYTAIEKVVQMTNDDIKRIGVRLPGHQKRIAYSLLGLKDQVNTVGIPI
Test [3] has as its target Histone-lysine N-methyltransferase 2C (Homo sapiens) (UniProt Q8NEZ4). The test is described as follows: Selectivity interaction (Transferase panel (protein, RNA, and DNA methyltransferases. and EP300 (acetyltransferase))) EUB0000270b MLL3. The note with it: at 10 µM.
Test [4] deals with Histone-lysine N-methyltransferase 2A (Homo sapiens) (UniProt Q03164). The test is described as follows: Selectivity interaction (Transferase panel (protein, RNA, and DNA methyltransferases. and EP300 (acetyltransferase))) EUB0000270b MLL.
The target in test [5] is T1, Histone-lysine N-methyltransferase EHMT1 (Homo sapiens) (UniProt Q9H9B1).
T1 sequence (whole entry): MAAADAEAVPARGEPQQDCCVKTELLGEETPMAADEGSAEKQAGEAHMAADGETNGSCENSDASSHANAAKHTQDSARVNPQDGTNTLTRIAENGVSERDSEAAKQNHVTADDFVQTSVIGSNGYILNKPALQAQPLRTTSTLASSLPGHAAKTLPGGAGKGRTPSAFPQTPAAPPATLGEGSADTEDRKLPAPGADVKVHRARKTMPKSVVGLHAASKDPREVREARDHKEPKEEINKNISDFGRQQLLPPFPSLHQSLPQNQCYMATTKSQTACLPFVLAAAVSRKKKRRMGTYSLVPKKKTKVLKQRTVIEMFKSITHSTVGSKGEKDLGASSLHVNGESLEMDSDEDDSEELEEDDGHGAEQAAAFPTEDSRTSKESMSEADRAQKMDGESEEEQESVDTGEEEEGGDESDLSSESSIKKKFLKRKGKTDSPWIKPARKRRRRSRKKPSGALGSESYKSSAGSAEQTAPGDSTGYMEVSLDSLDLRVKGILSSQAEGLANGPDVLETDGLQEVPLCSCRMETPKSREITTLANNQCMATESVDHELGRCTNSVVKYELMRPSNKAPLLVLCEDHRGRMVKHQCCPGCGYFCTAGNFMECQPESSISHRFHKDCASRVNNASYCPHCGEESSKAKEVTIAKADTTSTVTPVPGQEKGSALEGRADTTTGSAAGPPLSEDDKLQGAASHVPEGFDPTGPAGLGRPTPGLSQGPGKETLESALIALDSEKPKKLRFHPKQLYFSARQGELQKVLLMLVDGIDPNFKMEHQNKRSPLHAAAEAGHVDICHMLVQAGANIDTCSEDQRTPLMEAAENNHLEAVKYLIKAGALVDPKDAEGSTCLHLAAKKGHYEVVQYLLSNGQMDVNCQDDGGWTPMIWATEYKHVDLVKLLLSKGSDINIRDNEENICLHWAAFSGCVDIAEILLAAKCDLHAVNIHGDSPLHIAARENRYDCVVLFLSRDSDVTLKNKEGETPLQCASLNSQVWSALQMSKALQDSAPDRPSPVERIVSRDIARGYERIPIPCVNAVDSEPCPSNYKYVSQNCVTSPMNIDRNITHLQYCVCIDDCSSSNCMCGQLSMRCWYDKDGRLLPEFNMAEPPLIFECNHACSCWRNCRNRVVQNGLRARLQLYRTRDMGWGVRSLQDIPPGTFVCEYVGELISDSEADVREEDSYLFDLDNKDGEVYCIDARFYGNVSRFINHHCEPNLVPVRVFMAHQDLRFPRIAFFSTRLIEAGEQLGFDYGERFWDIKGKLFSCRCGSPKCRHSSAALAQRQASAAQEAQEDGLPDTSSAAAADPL
The test is described as follows: Selectivity interaction (Methyltransferase screen (radiometric assays, panel of 8 PRMTs, 21 protein lysine methyltransferases, 3 DNA methyltransferases, and one RNA methyltransferase)) EUB0000272b EHMT1.

Test [6] deals with Microtubule-associated serine/threonine-protein kinase 2 (Homo sapiens) (UniProt Q6P0Q8). The test is described as follows: Selectivity interaction (ActivX KiNativ screen (kinase selectivity in THP-1 cell lysates)) EUB0000639a MAST2. The note with it: lysate. Format: subcellular.
Chain of Microtubule-associated serine/threonine-protein kinase 2 (Homo sapiens) (Q6P0Q8 whole entry): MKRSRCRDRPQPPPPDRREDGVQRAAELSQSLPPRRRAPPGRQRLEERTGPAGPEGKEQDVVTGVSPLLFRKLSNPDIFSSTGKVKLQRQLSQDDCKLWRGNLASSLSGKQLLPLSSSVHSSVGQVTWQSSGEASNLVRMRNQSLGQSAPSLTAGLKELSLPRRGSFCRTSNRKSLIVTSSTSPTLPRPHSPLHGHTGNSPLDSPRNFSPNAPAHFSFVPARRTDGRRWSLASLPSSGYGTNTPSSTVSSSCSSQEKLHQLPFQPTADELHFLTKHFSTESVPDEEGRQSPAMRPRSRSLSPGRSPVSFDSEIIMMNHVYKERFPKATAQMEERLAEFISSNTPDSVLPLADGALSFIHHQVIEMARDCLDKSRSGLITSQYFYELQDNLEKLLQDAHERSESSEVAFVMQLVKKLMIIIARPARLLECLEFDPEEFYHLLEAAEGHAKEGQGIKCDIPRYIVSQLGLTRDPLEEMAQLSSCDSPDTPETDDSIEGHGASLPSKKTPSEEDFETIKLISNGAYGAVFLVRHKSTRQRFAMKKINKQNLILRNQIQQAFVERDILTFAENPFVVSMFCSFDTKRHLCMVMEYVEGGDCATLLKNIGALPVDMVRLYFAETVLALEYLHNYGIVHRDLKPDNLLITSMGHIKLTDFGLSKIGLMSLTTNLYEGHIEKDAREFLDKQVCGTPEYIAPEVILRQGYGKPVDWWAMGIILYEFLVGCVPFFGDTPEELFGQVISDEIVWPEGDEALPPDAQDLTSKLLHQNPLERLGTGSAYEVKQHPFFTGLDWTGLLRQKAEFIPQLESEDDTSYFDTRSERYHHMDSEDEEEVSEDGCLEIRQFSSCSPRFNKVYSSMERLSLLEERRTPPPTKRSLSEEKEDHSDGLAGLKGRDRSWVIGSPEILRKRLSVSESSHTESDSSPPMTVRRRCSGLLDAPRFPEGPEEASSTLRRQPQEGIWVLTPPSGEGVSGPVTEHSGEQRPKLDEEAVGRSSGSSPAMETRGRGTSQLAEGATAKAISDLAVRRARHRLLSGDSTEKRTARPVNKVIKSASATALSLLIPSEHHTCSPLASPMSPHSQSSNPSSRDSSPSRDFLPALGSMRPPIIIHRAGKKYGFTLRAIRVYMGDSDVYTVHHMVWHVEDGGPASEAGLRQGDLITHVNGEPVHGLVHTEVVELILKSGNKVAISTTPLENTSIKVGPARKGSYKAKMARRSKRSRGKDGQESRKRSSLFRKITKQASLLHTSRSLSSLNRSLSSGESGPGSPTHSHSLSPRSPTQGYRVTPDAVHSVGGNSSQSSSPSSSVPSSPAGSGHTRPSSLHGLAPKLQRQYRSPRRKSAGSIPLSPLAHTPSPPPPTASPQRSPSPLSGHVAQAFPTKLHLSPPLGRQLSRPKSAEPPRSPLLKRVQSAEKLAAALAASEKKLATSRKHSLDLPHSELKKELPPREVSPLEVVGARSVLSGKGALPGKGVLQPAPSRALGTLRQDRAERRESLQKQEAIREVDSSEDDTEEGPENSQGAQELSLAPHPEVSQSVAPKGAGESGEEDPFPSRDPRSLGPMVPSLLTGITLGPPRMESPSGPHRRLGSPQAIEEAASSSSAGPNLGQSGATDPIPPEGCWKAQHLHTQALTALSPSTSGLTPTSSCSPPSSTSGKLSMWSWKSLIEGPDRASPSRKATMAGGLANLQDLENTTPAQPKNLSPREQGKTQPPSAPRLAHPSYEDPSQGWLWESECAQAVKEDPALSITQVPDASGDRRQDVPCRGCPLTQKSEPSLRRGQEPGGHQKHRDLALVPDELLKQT
The target in test [7] is T2, Receptor-type tyrosine-protein kinase FLT3 (Homo sapiens, UniProt P36888).
T2 sequence (P36888 whole entry): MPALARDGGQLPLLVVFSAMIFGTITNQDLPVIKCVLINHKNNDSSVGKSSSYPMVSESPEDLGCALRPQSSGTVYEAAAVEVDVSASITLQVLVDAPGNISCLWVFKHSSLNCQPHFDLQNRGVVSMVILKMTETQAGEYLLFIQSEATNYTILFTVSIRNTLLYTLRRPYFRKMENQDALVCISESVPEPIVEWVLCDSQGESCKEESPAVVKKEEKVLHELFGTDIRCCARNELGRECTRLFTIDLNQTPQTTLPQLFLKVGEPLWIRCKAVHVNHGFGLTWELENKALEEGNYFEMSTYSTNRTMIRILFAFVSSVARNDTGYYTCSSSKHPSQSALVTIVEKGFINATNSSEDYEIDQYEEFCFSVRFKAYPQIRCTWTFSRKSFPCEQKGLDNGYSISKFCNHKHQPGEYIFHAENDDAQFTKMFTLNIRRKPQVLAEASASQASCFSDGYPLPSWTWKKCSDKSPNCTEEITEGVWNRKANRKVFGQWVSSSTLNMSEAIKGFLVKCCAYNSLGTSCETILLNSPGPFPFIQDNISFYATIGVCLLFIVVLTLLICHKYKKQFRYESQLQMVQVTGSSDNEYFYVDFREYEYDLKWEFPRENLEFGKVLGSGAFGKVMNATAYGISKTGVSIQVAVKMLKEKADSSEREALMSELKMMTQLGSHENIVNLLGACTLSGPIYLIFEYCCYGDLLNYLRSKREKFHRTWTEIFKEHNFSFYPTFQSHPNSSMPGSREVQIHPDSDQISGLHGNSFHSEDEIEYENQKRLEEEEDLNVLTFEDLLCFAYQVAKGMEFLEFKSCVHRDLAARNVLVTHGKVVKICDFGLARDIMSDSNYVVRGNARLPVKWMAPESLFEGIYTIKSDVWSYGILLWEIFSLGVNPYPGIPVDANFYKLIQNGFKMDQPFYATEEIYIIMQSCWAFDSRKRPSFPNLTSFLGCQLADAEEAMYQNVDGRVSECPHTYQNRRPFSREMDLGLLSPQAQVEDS
The test is described as follows: Selectivity interaction (Kinase panel (Eurofins, enzymatic assay)) EUB0000311b FLT3.

The target in test [8] is Serine/threonine-protein kinase ICK (Homo sapiens, UniProt Q9UPZ9). In words: Selectivity interaction (Kinase panel (Invitrogen, enzymatic assay)) EUB0000162b ICK.
Chain of Serine/threonine-protein kinase ICK (Q9UPZ9 whole entry, canonical isoform): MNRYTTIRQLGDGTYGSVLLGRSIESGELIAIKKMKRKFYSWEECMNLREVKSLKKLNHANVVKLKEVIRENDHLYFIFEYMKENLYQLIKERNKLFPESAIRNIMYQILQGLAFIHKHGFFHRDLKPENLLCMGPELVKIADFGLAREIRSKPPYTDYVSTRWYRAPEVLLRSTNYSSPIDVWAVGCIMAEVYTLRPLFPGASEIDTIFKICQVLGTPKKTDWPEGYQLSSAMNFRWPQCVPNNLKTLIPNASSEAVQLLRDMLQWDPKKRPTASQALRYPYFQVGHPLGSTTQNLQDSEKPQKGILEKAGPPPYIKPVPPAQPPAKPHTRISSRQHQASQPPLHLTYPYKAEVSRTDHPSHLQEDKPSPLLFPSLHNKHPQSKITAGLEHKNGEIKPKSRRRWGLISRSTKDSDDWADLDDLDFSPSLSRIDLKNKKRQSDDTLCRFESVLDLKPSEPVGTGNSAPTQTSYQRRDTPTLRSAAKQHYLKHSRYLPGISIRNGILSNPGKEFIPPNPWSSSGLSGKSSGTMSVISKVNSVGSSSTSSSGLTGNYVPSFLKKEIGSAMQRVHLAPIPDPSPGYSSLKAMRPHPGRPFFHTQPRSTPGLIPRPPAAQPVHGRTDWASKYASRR
Test [9] deals with Phosphatidylinositol 4,5-bisphosphate 3-kinase catalytic subunit gamma isoform (Homo sapiens) (UniProt P48736). In words: Selectivity interaction (KinomeScan (DiscoverX)) EUB0000618a PIK3CG. Conditions: at 10 µM.
Chain of Phosphatidylinositol 4,5-bisphosphate 3-kinase catalytic subunit gamma isoform (Homo sapiens) (P48736 whole entry, looked up, canonical isoform): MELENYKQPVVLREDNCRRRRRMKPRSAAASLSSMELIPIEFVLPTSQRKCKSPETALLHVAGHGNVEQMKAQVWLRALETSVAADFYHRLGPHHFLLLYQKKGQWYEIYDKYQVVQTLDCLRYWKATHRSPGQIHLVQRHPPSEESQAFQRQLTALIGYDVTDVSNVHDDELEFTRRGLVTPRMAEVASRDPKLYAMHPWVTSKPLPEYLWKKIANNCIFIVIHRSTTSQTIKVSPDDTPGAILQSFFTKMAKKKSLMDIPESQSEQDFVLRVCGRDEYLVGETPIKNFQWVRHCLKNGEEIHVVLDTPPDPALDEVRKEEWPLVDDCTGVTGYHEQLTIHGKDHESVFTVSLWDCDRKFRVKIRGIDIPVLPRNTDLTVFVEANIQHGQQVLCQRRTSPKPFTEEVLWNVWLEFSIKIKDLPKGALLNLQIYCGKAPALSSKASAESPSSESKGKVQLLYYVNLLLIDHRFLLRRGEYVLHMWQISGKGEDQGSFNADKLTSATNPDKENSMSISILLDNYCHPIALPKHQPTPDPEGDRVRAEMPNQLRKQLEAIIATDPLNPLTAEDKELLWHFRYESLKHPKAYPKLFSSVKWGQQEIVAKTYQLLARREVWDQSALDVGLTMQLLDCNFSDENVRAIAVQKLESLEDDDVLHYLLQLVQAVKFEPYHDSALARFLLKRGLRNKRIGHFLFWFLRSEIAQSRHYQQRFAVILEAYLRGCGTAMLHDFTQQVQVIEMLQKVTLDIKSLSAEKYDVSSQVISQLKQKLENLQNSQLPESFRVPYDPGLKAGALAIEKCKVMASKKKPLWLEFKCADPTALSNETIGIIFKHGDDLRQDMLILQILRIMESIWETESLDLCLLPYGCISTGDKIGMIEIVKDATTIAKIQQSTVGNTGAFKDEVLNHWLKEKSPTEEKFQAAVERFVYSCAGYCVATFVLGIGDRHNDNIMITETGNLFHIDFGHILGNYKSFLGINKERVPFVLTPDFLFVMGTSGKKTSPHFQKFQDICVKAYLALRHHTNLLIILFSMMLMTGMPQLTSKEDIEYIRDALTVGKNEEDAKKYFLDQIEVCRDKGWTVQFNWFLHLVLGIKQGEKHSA

Chain of Mitogen-activated protein kinase 11 (Homo sapiens) (Q15759 whole entry): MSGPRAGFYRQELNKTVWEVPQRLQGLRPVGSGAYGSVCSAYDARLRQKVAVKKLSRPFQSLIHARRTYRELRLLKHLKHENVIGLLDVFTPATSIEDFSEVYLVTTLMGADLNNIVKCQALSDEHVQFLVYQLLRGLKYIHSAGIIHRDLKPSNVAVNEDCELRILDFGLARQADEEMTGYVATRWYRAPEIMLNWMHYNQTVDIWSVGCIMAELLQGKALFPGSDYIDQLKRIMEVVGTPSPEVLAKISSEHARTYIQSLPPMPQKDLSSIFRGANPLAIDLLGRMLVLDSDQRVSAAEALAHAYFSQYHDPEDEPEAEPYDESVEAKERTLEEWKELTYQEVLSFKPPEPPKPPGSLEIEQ

`CN(C)C/C=C/C(=O)Nc1ccc(C(=O)N2CCCC(Nc3ncc(Cl)c(-c4c[nH]c5ccccc45)n3)C2)cc1` (stereo not given) showed a % of control in [1] of 97%.
In the case of `Nc1cnc(N2CCc3cc(S(=O)(=O)Nc4c(F)cc(Cl)cc4F)cc(N4CCCC4=O)c32)nc1` [TP-020n], the % of control in test [2] came to 100%.
Take `Cc1cc(CN)cc(C)c1-c1ncn(C)c1-c1cncn1C`: the % activity is over 80% in test [3], over 90% in [4] (at 1 µM) and over 80% in test [4] (at 10 µM).
For the molecule `Cc1cc(C)cc([C@H]2c3cc(C)ccc3NC(=O)CN2C(=O)c2ccc(Br)s2)c1`, the % of activity came out at 98% in test [5] (at 1 µM) and 101% in test [5] (at 10 µM).
Regarding `CC[C@@H]1[C@H](F)C(=O)N[C@@H]1COc1nccc2cc(C(N)=O)c(OC)cc12` [ZIMLOVISERTIB], the % of inhibition in [6] (at 0.01 µM) was -0.4%; in [6] (at 0.04 µM), -2.4%; in [6] (at 0.2 µM), -2.5%; in [6] (at 1 µM), -1.4%; in test [6] (at 5 µM), -30.3%.
Turning to `CCc1ccccc1C(=O)Nc1n[nH]c2c(C)c(F)c(C3C(C#N)=C(C)N(C)C(C)=C3C#N)cc12` [BAY-3827], half-maximal inhibition in test [7] (IC50) required 124 nM.
In the case of `CN(C)C(=O)Cn1cc(-c2ccc(-c3cncc4ccccc34)cc2)cn1`, the IC50 (in general, the midpoint of a concentration-inhibition curve) in [8] came out at 2390 nM.
Regarding `O[C@H]1CC[C@H](Nc2ncc3nc(Nc4c(F)cc(F)cc4F)n([C@H]4CCOC4)c3n2)CC1`, in test [9], the % of control stood at 100%.
